# In article PMC8050214 (Scientific Reports, 2021):
# Key:
# [1] = target: T1, hD2LR (human dopamine D2 receptor, long splice variant) (Homo sapiens, UniProt P14416); test: BRET G protein (GαoA) activation, Gβγ-Venus / masGRK3ct-NLuc release; type: cell-based
# T1 construct: gene DRD2; full-length long isoform, stably expressed in Flp-In HEK293 cells (G protein BRET assay); C351I G alpha subunits co-transfected as sensors; hD2LR-NLuc fusion with GRK2-Venus in the GRK2 recruitment assay (SCH23390 row)
# [2] = target: T1, hD2LR (human dopamine D2 receptor, long splice variant); test: Schild analysis, BRET GRK2 recruitment (hD2LR-NLuc / GRK2-Venus); type: cell-based; conditions: read-out: pA2 (converted)
EC50 [1] [nM],Kb [2] [nM],SMILES
1.58,,C=CCN1C[C@H](C(=O)N(CCCN(C)C)C(=O)NCC)C[C@@H]2c3cccc4[nH]cc(c34)C[C@H]21 [Cabergoline]
209,,Oc1c(CN2CCN(c3ccccn3)CC2)cc(Cl)c2cccnc12 [MLS1547]
2.82,,CCCN(CCC)CCc1cccc2c1CC(=O)N2 [Ropinirole]
,525,CN1CCc2cc(Cl)c(O)cc2[C@@H](c2ccccc2)C1 [SCH23390]
4.37,,CCN(CC)C(=O)N[C@H]1C[C@@H]2c3cccc4[nH]cc(c34)C[C@H]2N(C)C1 [Terguride]
282,,Clc1cccc(C2CCN(CCCOc3ccc4scnc4c3)CC2)c1Cl [UNC9994]

SMILES,EC50 [1] [nM],Kb [2] [nM]
CC(C)C[C@H]1C(=O)N2CCC[C@H]2[C@]2(O)O[C@](NC(=O)[C@@H]3C=C4c5cccc6[nH]c(Br)c(c56)C[C@H]4N(C)C3)(C(C)C)C(=O)N12 [Bromocriptine],14.5,
